# Reference: US8778952B2, “Method of reducing intraosseous hypertension” (priority 2007, dated 2014)
# Test system: patient with severe arthritis in their knee
# Test: Case observation: MRI and reported pain of a patient's arthritic knee before and after routine use of a phosphodiesterase inhibitor
# Type: in vivo, human
# Conditions: one patient, 50 mg of sildenafil, once per day
# From the text: A physician, who is also the inventor of the present invention, performed an arthroscopic surgical procedure on a patient suffering from a loose cartilage body in the setting of severe arthritis in their knee. The patient was a competitive senior tennis player and declined knee replacement for that reason. The purpose of the procedure was merely to remove a loose body and abate the mechanical symptoms it caused. Approximately one year later, the patient returned to their physician for evaluation of what was believed to be an unrelated ganglion cyst on the same knee. […] Upon questioning by their physician, the patient explained that the only difference in their medical history (including lifestyle, activity, new illness and medications) between the time of the first and second MRIs was that they started using a phosphodiesterase inhibitor. Specifically, the patient started using Viagra® (50 mg of sildenafil, once per day). There were no other changes in the interval medical history.
smiles,measurement,setting,value
"CCCc1nn(C)c2c(=O)[nH]c(-c3cc(S(=O)(=O)N4CCN(C)CC4)ccc3OCC)nc12 [Viagra®, sildenafil]",intraosseous hypertension / bone edema on coronal MRI of knee (white spots on tibial spines),FIG. 2 MRI compared with FIG. 1 MRI approximately one year earlier,dissipation of the intraosseous hypertension
same,knee pain from arthritis (reported by patient),"few months prior to second MRI, approximately one year after first MRI",reduction in knee pain
